According to patent US20170226072A1, “1,4-Disubstituted Piperidines, 1,4-Disubstituted Piperazines, 1,4-Disubstituted Diazepines, and 1,3-Disubstituted Pyrrolidine Compounds” (University of Kentucky Research Foundation, priority 2013, published 2017):
Values joined by “and” are separate entries in the source; they are usually repeats but may differ in a detail not shown here. Equal entries are not always repeated.

Tests used:
hERG channel = biological target: T1, hERG channel (Homo sapiens, UniProt Q12809); experiment: [3H]Dofetilide binding assay, HEK-293 cell membrane preparation; conditions: HEK-293 cell membranes expressing hERG, 5 nM [3H]dofetilide; read-out: hERG [3H]Dofetilide Binding Inhibition Mean ± SEM (IC50)
T1 construct: expressed in transfected cells
Experimental: [^3H]Dofetilide Binding Assay, HEK-293 Cell Membrane Preparation
[^3H]Dofetilide binding assays were conducted using commercially available HEK-293 cell membranes which stably express the hERG channel. Membranes were suspended in assay buffer (50 mM Tris, 10 mM KCl, 1 mM MgCl2, pH 7.4) prior to the experiment. Assays were performed in duplicate in a total volume of 250 μL. Aliquots of the HEK-293 cell membrane suspension which contained 5 μg membrane protein were added to tubes containing assay buffer, 5 nM [^3H]dofetilide and a range of concentrations of analog (10 nM-100 μM). Nonspecific binding was determined in the presence of amitriptyline (1 mM). Samples were incubated for 1 hr. at 24° C., followed by rapid filtration. Radioactivity retained by the filters was determined by liquid scintillation spectrometry as described above for the [^3H]DA uptake assay. The affinity for the [^3H]dofetilide binding site on the hERG channel expressed in the HEK-293 cellular membrane was determined from the analog concentration response curves.

VMAT2 [1] = biological target: T2, VMAT2 (Rattus norvegicus, UniProt Q01827); experiment: [3H]Dopamine ([3H]DA) uptake assay, vesicular preparation; assay type: biochemical
T2 construct: conducted using isolated synaptic vesicle preparations; from tissue; host or cells: rat striatum, isolated synaptic vesicles
Experimental: [^3H]Dopamine ([^3H]DA) Uptake Assay, Vesicular Preparation
Homogenates were centrifuged (2,000 g for 10 min at 4° C.), and then the supernatants were centrifuged (10,000 g for 30 min at 4° C.). Pellets were resuspended in 2 ml of 0.32 M sucrose solution and subjected to osmotic shock by adding 7 ml of ice-cold MilliQ water to the preparation. After 1 min, osmolarity was restored by adding 900 μl of 0.25 M HEPES buffer and 900 μl of 1.0 M potassium tartrate solution. Samples were centrifuged (20,000 g for 20 min at 4° C.), and the supernatants were centrifuged (55,000 g for 1 hr at 4° C.), followed by addition of 100 μl of 10 mM MgSO4, 100 μl of 0.25 M HEPES and 100 μl of 1.0 M potassium tartrate solution prior to the final centrifugation (100,000 g for 45 min at 4° C.). Final pellets were resuspended in 2.4 ml of assay buffer (25 mM HEPES, 100 mM potassium tartrate, 50 μM EGTA, 100 μM EDTA, 1.7 mM ascorbic acid, 2 mM ATP-Mg^2+, pH 7.4). Aliquots of the vesicular suspension (100 μl) were added to tubes containing assay buffer, various concentrations of compound (0.1 nM-10 mM) and 0.1 μM [^3H]DA in a final volume of 500 and incubated at 37° C. for 8 min. […] Reactions were terminated by filtration, and radioactivity retained by the filters was determined by liquid scintillation spectrometry (Tri-Carb 2100TR liquid scintillation analyzer; PerkinElmer Life and Analytical Sciences, Boston, Mass.).

VMAT2 [2] = biological target: T2, VMAT2; experiment: [3H]Dihydrotetrabenazine ([3H]DTBZ) binding assay, vesicular preparation; conditions: rat brain synaptic vesicles, 3 nM [3H]DTBZ; read-out: Inhibition of [3H]DTBZ binding (Ki) VMAT2
Experimental: [^3H]Dihydrotetrabenazine ([^3H]DTBZ) Binding Assay, Vesicular Preparation
The resulting supernatant (S1) was then centrifuged at 22,000 g for 10 min at 4° C. The synaptosomal pellets (P2) were homogenized in 18 mL of ice-cold Milli-Q water and exposed for 5 min for lysing synaptosomes. Osmolarity was restored by addition of 2 mL of 25 mM HEPES with 100 mM dipotassium tartrate (pH 7.5). Samples were centrifuged at 20,000 g for 20 min at 4° C. to remove lysed synaptosomal membranes. MgSO4 (1 mM) was added to the supernatant (S3), and was centrifuged at 100,000 g for 45 min at 4° C. […] Aliquot parts (100 μL) of suspension of vesicle membrane protein were incubated in assay buffer (25 mM HEPES, 100 mM dipotassium tartrate, 5 mM MgSO4, 0.1 mM EDTA and 0.05 mM EGTA, pH 7.5, at 25° C.) in the presence of 3 nM [^3H]DTBZ and at least 7 concentrations (1 nM-1 mM) of compound for 1 hr at room temperature. Nonspecific binding was determined in the presence of 20 μM tetrabenazine, a standard compound. Assays were performed in duplicate using a 96-well plate format. Reactions were terminated by filtration of samples on a Unifilter-96 GF/B filter plates (presoaked in 0.5% polyethylenimine), using a FilterMate harvester (Packard BioScience Co., Meriden, Conn.).
After washing 5 times with 350 μL of the ice-cold wash buffer (25 mM HEPES, 100 mM dipotassium tartrate, 5 mM MgSO4 and 10 mM NaCl, pH 7.5), filter plates were dried, sealed and each well filled with 40 μL Packard's MicroScint 20 cocktail. Bound [^3H]DTBZ was measured using a Packard TopCount NXT scintillation counter with a Packard Windows NT based operating system.

[3] = biological target: T3, dopamine transporter (DAT) (Rattus norvegicus, UniProt P23977); experiment: [3H]DA uptake assay, striatal synaptosomal preparation; assay type: biochemical; conditions: rat striatal synaptosomes; read-out: DAT [3H]DA Uptake Inhibition Mean ± SEM (Ki)
T3 construct: from tissue; host or cells: rat striatum, synaptosomes
Experimental: [^3H]DA and [^3H]5-HT Uptake Assay, Synaptosomal Preparation
[^3H]DA and [^3H]5-HT uptake into striatal synaptosomes was determined to evaluate compound inhibition of the dopamine transporter (DAT) and the serotonin transporter (SERT), respectively. […] Homogenates were centrifuged at 2000 g for 10 min at 4° C., and resulting supernatants were centrifuged at 20,000 g for 17 min at 4° C. […] Assays were performed in duplicate in a total volume of 500 (for DAT assays) or 250 μL (for SERT assays). […] Reactions were terminated by addition of 3 mL of ice-cold assay buffer and subsequent filtration and radioactivity retained by the filters was determined by liquid scintillation spectrometry (Tri-Carb 2100TR liquid scintillation analyzer; PerkinElmer Life and Analytical Sciences, Boston, Mass.).

[4] = rat striatal synaptic vesicles, 0.1 μM [3H]DA, read-out: [3H]DA Uptake (Ki) VMAT2
[5] = synaptic vesicle preparations, summary of Table 1, read-out: inhibition of [3H]DA uptake, Ki

T1 sequence (Q12809 whole entry): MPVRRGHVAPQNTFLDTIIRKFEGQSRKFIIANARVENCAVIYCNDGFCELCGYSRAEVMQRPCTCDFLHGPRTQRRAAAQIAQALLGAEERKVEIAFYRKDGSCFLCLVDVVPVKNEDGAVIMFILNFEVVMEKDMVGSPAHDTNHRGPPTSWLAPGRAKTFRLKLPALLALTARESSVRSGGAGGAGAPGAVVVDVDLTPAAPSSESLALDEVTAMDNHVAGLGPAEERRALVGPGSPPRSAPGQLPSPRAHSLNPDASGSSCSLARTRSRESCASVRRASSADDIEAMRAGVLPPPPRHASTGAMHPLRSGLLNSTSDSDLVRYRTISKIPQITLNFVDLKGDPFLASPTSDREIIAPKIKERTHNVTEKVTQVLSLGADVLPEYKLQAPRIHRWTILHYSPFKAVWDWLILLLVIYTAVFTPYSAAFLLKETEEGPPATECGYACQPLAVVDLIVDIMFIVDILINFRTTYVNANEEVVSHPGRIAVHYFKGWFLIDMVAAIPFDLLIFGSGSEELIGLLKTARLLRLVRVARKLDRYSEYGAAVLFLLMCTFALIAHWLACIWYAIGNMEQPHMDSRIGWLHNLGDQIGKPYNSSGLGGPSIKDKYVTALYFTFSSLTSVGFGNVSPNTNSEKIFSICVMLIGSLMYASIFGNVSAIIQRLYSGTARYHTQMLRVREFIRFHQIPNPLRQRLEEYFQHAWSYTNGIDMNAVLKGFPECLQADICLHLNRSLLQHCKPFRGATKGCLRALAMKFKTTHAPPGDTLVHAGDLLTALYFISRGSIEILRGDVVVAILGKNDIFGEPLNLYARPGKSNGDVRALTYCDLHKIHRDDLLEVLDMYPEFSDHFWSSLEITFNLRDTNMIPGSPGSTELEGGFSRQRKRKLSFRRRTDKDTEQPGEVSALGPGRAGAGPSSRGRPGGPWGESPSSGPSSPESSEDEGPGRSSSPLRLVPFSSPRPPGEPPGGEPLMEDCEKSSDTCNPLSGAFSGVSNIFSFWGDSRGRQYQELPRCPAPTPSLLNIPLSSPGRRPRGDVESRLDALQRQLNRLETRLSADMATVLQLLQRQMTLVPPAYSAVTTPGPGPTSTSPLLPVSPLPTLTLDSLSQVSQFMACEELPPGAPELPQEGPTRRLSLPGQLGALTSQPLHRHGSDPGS
T3 sequence (P23977 whole entry): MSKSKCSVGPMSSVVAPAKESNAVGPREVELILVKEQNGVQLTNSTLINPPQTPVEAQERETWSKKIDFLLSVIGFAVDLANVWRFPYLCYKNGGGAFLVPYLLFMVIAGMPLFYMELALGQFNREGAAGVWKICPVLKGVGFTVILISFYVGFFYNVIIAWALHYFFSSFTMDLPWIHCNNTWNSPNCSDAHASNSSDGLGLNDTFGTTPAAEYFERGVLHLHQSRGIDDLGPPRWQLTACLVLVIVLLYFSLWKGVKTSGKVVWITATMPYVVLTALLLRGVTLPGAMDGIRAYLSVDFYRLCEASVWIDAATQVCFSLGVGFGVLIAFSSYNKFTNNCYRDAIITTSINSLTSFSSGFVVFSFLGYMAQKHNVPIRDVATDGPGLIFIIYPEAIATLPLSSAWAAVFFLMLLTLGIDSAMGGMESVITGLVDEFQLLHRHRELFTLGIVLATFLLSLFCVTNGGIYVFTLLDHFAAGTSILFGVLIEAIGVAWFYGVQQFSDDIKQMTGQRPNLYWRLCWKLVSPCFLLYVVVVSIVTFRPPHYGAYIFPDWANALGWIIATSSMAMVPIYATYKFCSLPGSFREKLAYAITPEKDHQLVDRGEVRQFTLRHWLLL
T2 sequence (Q01827 whole entry): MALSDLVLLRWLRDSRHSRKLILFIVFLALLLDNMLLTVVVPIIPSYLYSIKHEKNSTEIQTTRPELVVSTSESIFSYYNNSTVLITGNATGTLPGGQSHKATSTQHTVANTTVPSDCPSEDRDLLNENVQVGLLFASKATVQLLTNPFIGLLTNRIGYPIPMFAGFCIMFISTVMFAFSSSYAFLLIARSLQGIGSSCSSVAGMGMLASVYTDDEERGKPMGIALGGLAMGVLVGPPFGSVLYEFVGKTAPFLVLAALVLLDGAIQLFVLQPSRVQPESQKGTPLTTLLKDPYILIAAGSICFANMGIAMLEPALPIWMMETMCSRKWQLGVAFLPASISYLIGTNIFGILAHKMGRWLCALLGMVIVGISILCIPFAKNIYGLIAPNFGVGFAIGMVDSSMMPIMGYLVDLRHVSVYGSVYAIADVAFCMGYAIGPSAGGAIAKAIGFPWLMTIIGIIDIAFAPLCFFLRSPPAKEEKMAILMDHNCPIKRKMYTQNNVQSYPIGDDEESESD

SMILES	IC50 (hERG channel)	Ki (VMAT2 [1]; [4])	Ki (VMAT2 [2])	Ki [3]	Ki (VMAT2 [1]; [5])
COc1ccccc1CCN1CCC(CCc2ccccc2)CC1 [Compound 1, 1-(2-methoxyphenethyl)-4-phenethylpiperidine]	534 ± 142 nM	30 ± 2 nM	255 ± 26 nM		
COc1ccc(CCN2CCC(CCc3ccccc3)CC2)cc1OC [Compound 3]	402 ± 72.7 nM	56 ± 9 nM	2800 ± 110 nM		
COc1ccc(CCN2CCC(CCc3ccccc3)CC2)cc1 [Compound 4]	622 ± 215 nM	46 ± 3.7 nM	1620 ± 190 nM		
COc1ccccc1CCN1CCC(Cc2ccccc2)CC1 [Compound 5]		130 ± 15 nM	2760 ± 310 nM		
COc1cccc(CCN2CCC(Cc3ccccc3)CC2)c1 [Compound 6]	442 ± 221 nM	77 ± 9.8 nM	1530 ± 100 nM		
COc1ccc(CCN2CCC(Cc3ccccc3)CC2)cc1OC [Compound 7]		240 ± 34 nM	2990 ± 170 nM		
COc1ccc(CCN2CCC(Cc3ccccc3)CC2)cc1 [Compound 8]		180 ± 11 nM	1940 ± 430 nM		
COc1cc(OC)c(OC)cc1CCC1CCN(CCc2ccccc2)CC1 [Compound 9]	8100 ± 585 nM	94 ± 9.6 nM	380 ± 49 nM	5460 ± 120 nM	
Clc1ccccc1CCN1CCC(CCc2ccccc2)CC1 [Compound 10]	666 ± 26.5 nM	47 ± 6.3 nM	380 ± 5.8 nM		
Fc1ccc(CCN2CCC(CCc3ccccc3)CC2)cc1 [Compound 11]	353 ± 36 nM	32 ± 3.8 nM	1820 ± 79 nM		
COc1cccc(CCC2CCN(CCc3ccccc3)CC2)c1 [Compound 14]	631 ± 88.8 nM	56 ± 8.6 nM	320 ± 15 nM		
COc1cccc(CCC2CCN(CCc3ccccc3OC)CC2)c1 [Compound 15]	790 ± 64.1 nM	40 ± 7.5 nM	320 ± 55 nM		
COc1cccc(CCC2CCN(CCc3cccc(OC)c3)CC2)c1 [Compound 16]	564 ± 131 nM	85 ± 10 nM	230 ± 19 nM		
COc1ccc(CCN2CCC(CCc3cccc(OC)c3)CC2)cc1 [Compound 17]	600 ± 87.8 nM	130 ± 23 nM	450 ± 130 nM		
COc1cccc(CCC2CCN(CCc3ccccc3Cl)CC2)c1 [Compound 18]		420 ± 49 nM	460 ± 98 nM		
COc1cccc(CCC2CCN(CCc3ccc(F)cc3)CC2)c1 [Compound 19]	409 ± 42.9 nM	69 ± 4 nM	960 ± 47 nM		
COc1ccc(CCC2CCN(CCc3ccccc3)CC2)cc1 [Compound 20]		110 ± 7 nM	510 ± 87 nM		
COc1ccc(CCC2CCN(CCc3ccccc3OC)CC2)cc1 [Compound 21]	323 ± 96.4 nM	83 ± 9 nM	420 ± 19 nM		
COc1ccc(CCC2CCN(CCc3cccc(OC)c3)CC2)cc1 [Compound 22]	479 ± 228 nM	75 ± 4 nM	230 ± 47 nM		

SMILES	IC50 (hERG channel)	Ki (VMAT2 [1]; [4])	Ki (VMAT2 [2])	Ki [3]	Ki (VMAT2 [1]; [5])
COc1ccc(CCC2CCN(CCc3ccc(OC)cc3)CC2)cc1 [Compound 23]		160 ± 12 nM	2470 ± 270 nM		
COc1ccc(CCC2CCN(CCc3ccc(F)cc3)CC2)cc1 [Compound 25]	1420 ± 384 nM	60 ± 5 nM	470 ± 67 nM		
COc1cccc(CCN2CCC(CCc3ccccc3OC)CC2)c1 [Compound 26, 1-(3-methoxyphenethyl)-4-(2-methoxyphenethyl)piperidine]	607 ± 25.5 nM	13 ± 1.5 nM	150 to 190 nM and 150 nM		9 to 20 nM
COc1ccc(CCN2CCC(CCc3ccccc3OC)CC2)cc1 [Compound 27]	479 ± 109 nM	43 ± 2.8 nM	500 ± 100 nM		
COc1ccccc1CCC1CCN(CCc2ccccc2Cl)CC1 [Compound 28, 1-(2-chlorophenethyl)-4-(2-methoxyphenethyl)piperidine]	1190 ± 181 nM	20 ± 3 nM	190 ± 20 nM	1250 ± 307 nM	9 to 20 nM
Fc1ccc(CCC2CCN(CCc3ccccc3)CC2)c(F)c1 [Compound 30]	552 ± 99.1 nM	53 ± 5.5 nM	530 ± 110 nM		
COc1ccccc1CCN1CCC(CCc2ccc(F)cc2F)CC1 [Compound 31]	317 ± 24.8 nM	41 ± 12 nM	350 ± 48 nM		
COc1cccc(CCN2CCC(CCc3ccc(F)cc3F)CC2)c1 [Compound 32]	327 ± 35.3 nM	29 ± 5.5 nM	270 ± 15 nM		
COc1ccc(CCN2CCC(CCc3ccc(F)cc3F)CC2)cc1 [Compound 33]	1070 ± 152 nM	70 ± 5.1 nM	1300 ± 170 nM		
Fc1ccc(CCC2CCN(CCc3ccccc3Cl)CC2)c(F)c1 [Compound 34]		110 ± 19 nM	240 ± 38 nM		
Fc1ccc(CCN2CCC(CCc3ccc(F)cc3F)CC2)cc1 [Compound 35]	201 ± 32.7 nM	43 ± 14 nM	1450 ± 240 nM		
COc1ccc(CCC2CCN(CCc3ccccc3)CC2)c(F)c1 [Compound 36]		120 ± 8.5 nM	290 ± 64 nM		
COc1ccc(CCC2CCN(CCc3ccccc3OC)CC2)c(F)c1 [Compound 37]	2870 ± 760 nM	76 ± 10 nM	330 ± 18 nM		
COc1cccc(CCN2CCC(CCc3ccc(OC)cc3F)CC2)c1 [Compound 38, 4-(2-fluoro-4-methoxyphenethyl)-1-(3-methoxyphenethyl)piperidine]	479 ± 64.3 nM	83 ± 3.8 nM	190 ± 9 nM	2940 ± 270 nM	
COc1ccc(CCN2CCC(CCc3ccc(OC)cc3F)CC2)cc1 [Compound 39]	299 ± 45.9 nM	44 ± 3.3 nM	1610 ± 78 nM		
COc1ccc(CCC2CCN(CCc3ccccc3Cl)CC2)c(F)c1 [Compound 40]	1410 ± 166 nM	67 ± 21 nM	230 ± 15 nM		
COc1ccc(CCC2CCN(CCc3ccc(F)cc3)CC2)c(F)c1 [Compound 41]	3600 ± 1220 nM	60 ± 8.2 nM	600 ± 75 nM	3480 ± 415 nM	
Fc1cc(F)cc(CCC2CCN(CCc3ccccc3)CC2)c1 [Compound 42]	258 nM	51 ± 3.5 nM	1100 ± 87 nM		
COc1ccccc1CCN1CCC(CCc2cc(F)cc(F)c2)CC1 [Compound 43]	427 ± 134 nM	34 ± 3.9 nM	410 ± 38 nM		

SMILES	IC50 (hERG channel)	Ki (VMAT2 [1]; [4])	Ki (VMAT2 [2])	Ki [3]	Ki (VMAT2 [1]; [5])
COc1cccc(CCN2CCC(CCc3cc(F)cc(F)c3)CC2)c1 [Compound 44]	477 ± 42.9 nM	28 ± 2.7 nM	250 ± 3 nM	1910 ± 568 nM	
COc1ccc(CCN2CCC(CCc3cc(F)cc(F)c3)CC2)cc1 [Compound 45]		120 ± 28 nM	2030 ± 130 nM		
Fc1cc(F)cc(CCC2CCN(CCc3ccccc3Cl)CC2)c1 [Compound 46]		180 ± 68 nM	660 ± 58 nM		
Fc1ccc(CCN2CCC(CCc3cc(F)cc(F)c3)CC2)cc1 [Compound 47]	440 ± 41.2 nM	68 ± 16 nM	1430 ± 280 nM		
c1ccc(CCC2CCN(Cc3ccccc3)CC2)cc1 [Compound 48]		190 ± 63 nM	21700 ± 2080 nM		
COc1ccccc1CN1CCC(CCc2ccccc2)CC1 [Compound 49]	568 ± 122 nM	70 ± 7.5 nM	9360 ± 1320 nM		
COc1cccc(CN2CCC(CCc3ccccc3)CC2)c1 [Compound 50]		190 ± 20 nM	12700 ± 4280 nM		
COc1ccc(CN2CCC(CCc3ccccc3)CC2)cc1 [Compound 51]		250 ± 27 nM	6230 ± 560 nM		
Clc1ccccc1CN1CCC(CCc2ccccc2)CC1 [Compound 52]		270 ± 42 nM	44500 ± 17800 nM		
Fc1ccc(CN2CCC(CCc3ccccc3)CC2)cc1 [Compound 53]		210 ± 12 nM	10100 ± 580 nM		
COc1ccc(CCN2CCN(CCc3ccc(OC)cc3)CC2)cc1 [Compound 57]		410 ± 5 nM	6630 ± 840 nM		
Clc1ccccc1CCN1CCN(CCc2ccccc2)CC1 [Compound 63]	2840 ± 287 nM	63 ± 6.9 nM	1590 ± 260 nM	10400 ± 1850 nM	
c1ccc(CCN2CCCN(CCc3ccccc3)CC2)cc1 [Compound 65]		190 ± 17 nM	3170 ± 550 nM		
COc1ccccc1CCN1CCCN(CCc2ccccc2OC)CC1 [Compound 66]		190 ± 26 nM	2020 ± 110 nM		
COc1cccc(CCN2CCCN(CCc3cccc(OC)c3)CC2)c1 [Compound 67]	1120 ± 85.7 nM	100 ± 10 nM	2240 ± 530 nM		
COc1ccc(CCN2CCCN(CCc3ccc(OC)cc3)CC2)cc1 [Compound 68]		250 ± 15 nM	2880 ± 250 nM		
Clc1ccccc1CCN1CCCN(CCc2ccccc2Cl)CC1 [Compound 69]		170 ± 25 nM	930 ± 21 nM		
Fc1ccc(CCN2CCCN(CCc3ccc(F)cc3)CC2)cc1 [Compound 70]	57 ± 2.7 nM	85 ± 5.2 nM	5050 ± 770 nM		
